Assay results taken from ChEMBL document CHEMBL3826919, “The discovery of novel and selective fatty acid binding protein 4 inhibitors by virtual screening and biological evaluation” (Bioorg Med Chem, 2016).
pKd, pKi: −log10 of the molar value.

Columns and labels:
[1] = biological target: T1, Fatty acid-binding protein, adipocyte (Homo sapiens, UniProt P15090); assay: Displacement of 1,8-ANS from His6-tagged FABP4 (unknown origin) expressed in Escherichia coli BL21(DE3) cells by fluorescence assay; conditions: read-out: Ki(app)
Target sequence in this assay (P15090 whole entry): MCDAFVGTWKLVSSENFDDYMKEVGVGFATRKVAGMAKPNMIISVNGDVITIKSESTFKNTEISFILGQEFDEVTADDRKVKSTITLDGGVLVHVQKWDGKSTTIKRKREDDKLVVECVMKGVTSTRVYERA

Homo sapiens [2] = species: Homo sapiens; assay: Displacement of 1,8-ANS from His6-tagged FABP4 (unknown origin) R126A mutant expressed in Escherichia coli BL21(DE3) cells at 25 uM by fluorescence assay relative to control
[3] = biological target: T2, Fatty acid-binding protein, intestinal (Homo sapiens) (UniProt P12104); assay: Displacement of 1,8-ANS from His6-tagged FABP2 (unknown origin) expressed in Escherichia coli BL21(DE3) cells at 25 uM by fluorescence assay relative to control
T2 sequence (whole entry): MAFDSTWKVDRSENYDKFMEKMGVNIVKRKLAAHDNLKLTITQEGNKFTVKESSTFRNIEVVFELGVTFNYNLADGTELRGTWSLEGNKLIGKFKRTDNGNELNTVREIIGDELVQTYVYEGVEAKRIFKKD

[4] = biological target: T3, Fatty acid-binding protein, adipocyte (Mus musculus) (UniProt P04117); assay: Inhibition of FABP4 in mouse RAW264.7 cells assessed as inhibition of LPS-induced IL-6 expression after 24 hrs by qPCR method; type: cell-based
T3 sequence (whole entry): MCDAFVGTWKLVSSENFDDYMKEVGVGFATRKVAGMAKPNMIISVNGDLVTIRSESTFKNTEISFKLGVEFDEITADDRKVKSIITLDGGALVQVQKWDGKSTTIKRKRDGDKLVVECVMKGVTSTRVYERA

[5] = biological target: T1, Fatty acid-binding protein, adipocyte; assay: Displacement of 1,8-ANS from His6-tagged FABP4 (unknown origin) expressed in Escherichia coli BL21(DE3) cells at 25 uM by fluorescence assay relative to control
Target sequence in this assay (P15090 2-132 limits assumed): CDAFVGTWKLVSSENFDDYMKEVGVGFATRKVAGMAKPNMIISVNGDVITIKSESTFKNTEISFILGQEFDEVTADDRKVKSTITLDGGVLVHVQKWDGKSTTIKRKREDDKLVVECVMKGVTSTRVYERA

[6] = biological target: T4, Fatty acid-binding protein, heart (Homo sapiens, UniProt P05413); assay: Displacement of 1,8-ANS from His6-tagged FABP3 (unknown origin) expressed in Escherichia coli BL21(DE3) cells by fluorescence assay; conditions: read-out: Ki(app)
Target sequence in this assay (P05413 whole entry): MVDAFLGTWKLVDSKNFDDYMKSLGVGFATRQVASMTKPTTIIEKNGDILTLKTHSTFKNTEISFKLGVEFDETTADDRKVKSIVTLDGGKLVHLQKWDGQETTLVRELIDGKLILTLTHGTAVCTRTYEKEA

[7] = biological target: T1, Fatty acid-binding protein, adipocyte; assay: Direct binding to His6-tagged FABP4 (unknown origin) expressed in Escherichia coli BL21(DE3) cells by isothermal titration calorimetry
Target sequence in this assay (P15090 whole entry): as the sequence (P15090 whole entry) above

[8] = biological target: T4, Fatty acid-binding protein, heart; conditions: 50 uM
Target sequence in this assay (P05413 2-133 limits assumed): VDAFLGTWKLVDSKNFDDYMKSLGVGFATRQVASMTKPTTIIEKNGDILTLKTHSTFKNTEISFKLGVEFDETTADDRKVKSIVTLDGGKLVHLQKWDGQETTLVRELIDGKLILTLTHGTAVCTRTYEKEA
Description: Binding affinity to His6-tagged FABP3 (unknown origin) expressed in Escherichia coli BL21(DE3) cells assessed as change in melting temperature at 50 uM after 30 mins by SYPRO orange dye based thermal stability shift assay

[9] = biological target: T4, Fatty acid-binding protein, heart; conditions: 25 uM
Target sequence in this assay (P05413 2-133 limits assumed): as above
Description: Displacement of 1,8-ANS from His6-tagged FABP3 (unknown origin) expressed in Escherichia coli BL21(DE3) cells at 25 uM by fluorescence assay relative to control

[10] = biological target: Fatty acid-binding protein, brain (Homo sapiens) (UniProt O15540); assay: Displacement of 1,8-ANS from His6-tagged FABP7 (unknown origin) expressed in Escherichia coli BL21(DE3) cells at 25 uM by fluorescence assay relative to control
[11] = biological target: Myelin P2 protein (Homo sapiens) (UniProt P02689); assay: Displacement of 1,8-ANS from His6-tagged FABP8 (unknown origin) expressed in Escherichia coli BL21(DE3) cells at 25 uM by fluorescence assay relative to control
[12] = biological target: T5, Fatty acid-binding protein, liver (Homo sapiens) (UniProt P07148); assay: Displacement of 1,8-ANS from His6-tagged FABP1 (unknown origin) expressed in Escherichia coli BL21(DE3) cells at 25 uM by fluorescence assay relative to control
T5 sequence (whole entry): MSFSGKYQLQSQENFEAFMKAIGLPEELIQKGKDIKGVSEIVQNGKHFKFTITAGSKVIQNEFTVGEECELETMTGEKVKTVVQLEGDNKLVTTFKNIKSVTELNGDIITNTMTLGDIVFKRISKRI

[13] = biological target: Fatty acid-binding protein 5 (Homo sapiens) (UniProt Q01469); assay: Displacement of 1,8-ANS from His6-tagged FABP5 (unknown origin) expressed in Escherichia coli BL21(DE3) cells at 25 uM by fluorescence assay relative to control
[14] = biological target: T6, Fatty acid-binding protein 9 (Homo sapiens) (UniProt Q0Z7S8); assay: Displacement of 1,8-ANS from His6-tagged FABP9 (unknown origin) expressed in Escherichia coli BL21(DE3) cells at 25 uM by fluorescence assay relative to control
T6 sequence (whole entry): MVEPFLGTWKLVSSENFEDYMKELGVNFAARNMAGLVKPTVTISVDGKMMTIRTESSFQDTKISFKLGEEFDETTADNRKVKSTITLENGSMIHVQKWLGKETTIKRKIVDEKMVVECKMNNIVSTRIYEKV

[15] = biological target: T1, Fatty acid-binding protein, adipocyte; assay: Binding affinity to His6-tagged FABP4 (unknown origin) expressed in Escherichia coli BL21(DE3) cells assessed as change in melting temperature at 50 uM after 30 mins by SYPRO orange dye based thermal stability shift assay
Target sequence in this assay (P15090 2-132 limits assumed): as the sequence (P15090 2-132 limits assumed) above

[16] = biological target: T3, Fatty acid-binding protein, adipocyte (Mus musculus); assay: Inhibition of FABP4 in mouse RAW264.7 cells assessed as inhibition of LPS-induced TNFalpha production after 24 hrs by ELISA; type: cell-based
[17] = biological target: T3, Fatty acid-binding protein, adipocyte (Mus musculus); assay: Inhibition of FABP4 in mouse RAW264.7 cells assessed as inhibition of LPS-induced TNFalpha expression after 24 hrs by qPCR method; type: cell-based
Homo sapiens [18] = species: Homo sapiens; assay: Displacement of 1,8-ANS from His6-tagged FABP4 (unknown origin) R106A mutant expressed in Escherichia coli BL21(DE3) cells at 25 uM by fluorescence assay relative to control

Myelin P2 protein (Homo sapiens), sequence (P02689 whole entry, looked up): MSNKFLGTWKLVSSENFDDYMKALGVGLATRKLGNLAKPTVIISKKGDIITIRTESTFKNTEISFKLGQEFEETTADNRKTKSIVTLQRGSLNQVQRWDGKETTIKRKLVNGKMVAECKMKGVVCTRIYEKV
Fatty acid-binding protein, brain (Homo sapiens), sequence (O15540 2-132 limits assumed): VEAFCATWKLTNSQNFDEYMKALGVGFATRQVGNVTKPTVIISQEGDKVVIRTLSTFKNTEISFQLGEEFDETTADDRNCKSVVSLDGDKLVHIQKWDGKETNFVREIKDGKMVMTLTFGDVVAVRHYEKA
Fatty acid-binding protein 5 (Homo sapiens), sequence (Q01469 whole entry): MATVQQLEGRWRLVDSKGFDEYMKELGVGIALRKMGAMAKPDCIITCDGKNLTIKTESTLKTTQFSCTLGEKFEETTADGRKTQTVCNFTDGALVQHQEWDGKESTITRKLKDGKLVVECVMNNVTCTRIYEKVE

pKi [1]: 6.54
inhibition [3]: 34.1%
inhibition [4]: Dose-dependent effect
inhibition [5]: 95.1%
pKi [6]: 5.89
pKd [7]: 5.58
ΔTm [8]: 4 °C
inhibition [9]: 63.1%
inhibition [10]: 58.5%
inhibition [11]: 68.4%
inhibition [12]: 95.5%
inhibition [13]: 77.7%
inhibition [14]: 64%
ΔTm [15]: 8.5 °C
inhibition [16]: Dose-dependent effect
inhibition [17]: Dose-dependent effect
SMILES: O=C(O)C1C2CC=CC2c2cc(Br)cc3c2N1CC1CC=CC31 (stereo not drawn)
inhibition (Homo sapiens [2]): 54.7%
inhibition (Homo sapiens [18]): 27%
